One compound from patent US12221422B2, “Compounds and their use for the treatment of alpha1-antitrypsin deficiency” (CENTESSA PHARMACEUTICALS (UK) LIMITED, priority 2018, dated 2025) can be followed below.

Structures are written as SMILES.

The nature of series [1]: Plasma protein binding, mouse plasma (rapid equilibrium dialysis). To be noted: 37° C. It counts as in vitro ADME. Here is the method: (§1) The extent to which compounds of the invention bound to plasma proteins such as albumin and alpha-1 acid glycoprotein within human, rat or mouse plasma was determined by rapid equilibrium dialysis. Compounds were incubated at 5 μM for 4 hours at 37° C. Plasma protein binding for N,N-dimethyl-4-((6-oxopyrimidin-1(6H)-yl)methyl)benzamide in mouse plasma was 37.3%, in rat plasma was 14.8% and in human plasma was 30.6%.

The next series deals with TK6 cells. The series is described as follows: In vitro micronucleus assay. It counts as cell-based. Also noted: relative increase in cell count (RICC): dose or concentration left out as unconfirmed. To be noted: for relative increase in cell count (RICC): vs concurrent negative control. From the text:
The purpose of the in vitro micronucleus assay is to assess the ability of the test item to cause chromosome or spindle damage, or to interfere with the cell cycle, in ways which lead to the formation of micronuclei in the cytoplasm of TK6 cells. Chromosome defects are recognised as being the basis of a number of human genetic diseases. Micronuclei (MN) are the result of chromosome fragments or whole chromosomes remaining in the cytoplasm and not being incorporated into the nuclei of newly formed cells. These arise from damage to chromosomes leading to acentric fragments which cannot attach to the mitotic spindle; damage to the spindle apparatus preventing a chromosome from attaching to it or other interference with cell division. Assays were performed in the presence and absence of an exogenous mammalian oxidative metabolising system (S-9 mix, a liver post-mitochondrial fraction derived from the livers of Aroclor 1254 treated rats), to mimic mammalian metabolism. Cells were exposed to the test item for 3 hours and sampled 44 hours after the beginning of treatment. As a number of chemicals have been reported as only exerting positive effects following prolonged treatment, a continuous treatment of 27 hours in the absence of S-9 mix was also included. This was equivalent to 1.5 to 2.0 times the average generation time of cultured cells used in the assay. The test methodology was based on established procedures for in vitro micronucleus testing.
N,N-dimethyl-4-((6-oxopyrimidin-1(6H)-yl)methyl)benzamide was tested up to the regulatory maximum dose level of 1 mM […] in all treatments.

Series [2] in a line: Plasma protein binding, rat plasma (rapid equilibrium dialysis). In kind it is in vitro ADME. The note with it: 37° C. Here is the method:
as §1

A short description of a further series: Aqueous solubility. In kind it is physicochemical. To be noted: thermodynamic from solid; water, shaken for 5 minutes until clear solution. Here is the method: Compounds of the invention were shaken for 5 minutes with increasing amounts of water until a clear solution had formed. Using this method the solubility of N,N-dimethyl-4-((6-oxopyrimidin-1(6H)-yl)methyl)benzamide was greater than 100 mg/ml.

A further series concerns the target T1, human Siiyama A1AT (Homo sapiens, UniProt P01009, S77F).
T1 construct: expressed in transfected cells; host or cells: HEK-Siiyama (HEK-EBNA cells containing the Siiyama A1AT plasmid)
The series is described as follows: A1AT cell secretion assay using HEK-Siiyama cells (ELISA). In kind it is cell-based. To be noted: 1 or 10 μM, 48 h. As for the experimental part:
HEK-Siiyama cells, a human embryonic kidney cell line stably transfected with the human Siiyama A1AT gene, were plated into 96 well plates (3.0×10^5 cells/ml with 200 μl of media/well) overnight at 37° C. in a humidified atmosphere containing 5% CO2. Following incubation cells were washed with 200 μl serum-free media three times and media was replaced with serum-free media containing either vehicle, 10 μM suberanilohydroxamic acid (SAHA) or a compound of the invention (at 1 or 10 μM) in replicates of eight for 48 h in a 37° C. incubator in a final volume of 200 μl. […]
Briefly, a 96 well plate was coated with human A1AT capture antibody overnight at room temperature (1:180 dilution from stock, 100 μl final volume/well). […] After which, 50 μl stop solution (2M H2SO4) was added and optical density (OD) of each well was read at 450 nm with 570 nm blank subtracted from each well using a microplate reader. A 4 parameter logistic curve was constructed using GraphPad Prism 7 and A1AT concentrations were determined in each sample by interpolation from a standard curve and multiplying by the appropriate dilution factor.
The amount of human A1AT secreted from transfected HEK-EBNA cells into the media was measured by ELISA. […]
A general note: In an ELISA, binding on a coated surface is turned into a signal by an enzyme label.

T1 sequence (P01009 25-418 S77F): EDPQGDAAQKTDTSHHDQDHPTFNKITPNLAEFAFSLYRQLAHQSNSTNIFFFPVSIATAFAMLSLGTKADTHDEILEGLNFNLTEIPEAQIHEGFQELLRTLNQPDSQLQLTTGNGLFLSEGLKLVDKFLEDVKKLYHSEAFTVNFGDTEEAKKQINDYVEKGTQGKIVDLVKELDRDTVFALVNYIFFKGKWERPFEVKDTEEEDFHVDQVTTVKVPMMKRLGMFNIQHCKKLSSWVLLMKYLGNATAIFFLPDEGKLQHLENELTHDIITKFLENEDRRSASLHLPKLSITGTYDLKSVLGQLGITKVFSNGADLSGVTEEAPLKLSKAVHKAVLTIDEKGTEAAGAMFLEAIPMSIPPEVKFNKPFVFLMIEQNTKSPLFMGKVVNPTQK

Take `CN(C)C(=O)c1ccc(Cn2cnccc2=O)cc1` [N,N-dimethyl-4-((6-oxopyrimidin-1(6H)-yl)methyl)benzamide]: the fraction unbound at 4 h, 5 μM in series [1] was 0.627; in series [2], 0.852. The “relative increase in cell count (RICC)” value stood at 98% with TK6 cells (absence of S-9 mix, 3 hour treatment); 74% in the series on TK6 cells (absence of S-9 mix, 27 hour treatment); 105% with TK6 cells (presence of S-9 mix, 3 hour treatment). Further, the clastogenicity / aneugenicity entry in the series with TK6 cells (presence or absence of S 9 mix) was “neither clastogenic nor aneugenic”. Also, in the series on TK6 cells (up to 1 mM, 27 hour treatment only), the cytotoxicity entry is recorded as “only slight cytotoxicity”. Also, the “percentage MN (% MN)” value in the series on TK6 cells (with S-9 mix 3 hour, without S-9 mix 3 hour or 27 hour) is “no statistically significant increases”. The same compound displayed a solubility at 5 min in the series “Aqueous solubility” above 100 mg/mL. Besides, the “secretion of Siiyama A1AT as measured by ELISA” value on human Siiyama A1AT was “does not stimulate secretion of Siiyama A1AT”.

In general, fraction unbound refers to the share of the substance not bound to proteins or other matrix. A word on the solubility: it is the concentration that dissolves in the medium under given conditions.
